Publication PMC12527922, “Cocaine chemogenetics blunts drug-seeking by synthetic physiology” (Nature, 2025)
Where “and” joins values, the source holds several entries; their conditions need not be identical. Equal values may be shown once. Read-outs that look alike come from different tables or passages of the source.

What was measured:
[1] = biological target: T1, coca-GlyR (α7(L141G,G175K,Y217F)–GlyR) (Homo sapiens, UniProt P23415+P36544, G175K/L141G/Y217F); experiment: Membrane potential assay, coca-GlyR in HEK293; assay type: cell-based; details: coca-GlyR; for Max normalized AVG: AVG of DRs
T1 construct: expressed in transfected cells; host or cells: HEK293 (ATCC CRL-1573), pcDNA3.1
T1 sequence (P36544+P23415 fused P36544:L141G/P36544:G175K/P36544:Y217F): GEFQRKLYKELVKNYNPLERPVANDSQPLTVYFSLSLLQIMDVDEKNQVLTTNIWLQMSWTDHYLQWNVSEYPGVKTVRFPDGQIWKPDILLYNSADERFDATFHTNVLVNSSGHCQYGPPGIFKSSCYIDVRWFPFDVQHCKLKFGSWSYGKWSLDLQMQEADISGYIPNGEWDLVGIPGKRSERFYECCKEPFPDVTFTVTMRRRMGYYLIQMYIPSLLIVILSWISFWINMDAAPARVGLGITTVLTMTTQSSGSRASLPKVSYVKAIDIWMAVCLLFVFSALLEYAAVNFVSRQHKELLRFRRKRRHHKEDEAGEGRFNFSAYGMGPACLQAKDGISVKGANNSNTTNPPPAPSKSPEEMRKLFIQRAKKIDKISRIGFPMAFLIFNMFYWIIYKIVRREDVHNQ

coca-5HT3 = experiment: Whole-cell voltage-clamp in HEK293 cells, coca-5HT3; assay type: cell-based, human α7 nAChR LBD, mouse 5HT3 IPD
Procedure: Channel mutants and agonists were further characterized in whole-cell voltage-clamp experiments performed on HEK293 cells. At passage 44–48, cells were plated at low density (1 × 10^3 per cm^2) on poly-D-lysine-coated glass coverslips, then transfected in 10 cm^2 wells using the Fugene 6 transfection reagent (Roche) with DNA plasmids containing both an ion channel cDNA (pcDNA3.1, 2 µg per well) and cDNA for GFP (pCMV, 0.1 μg per well), followed by replacement of the medium after 3 h. Recordings were made 24–72 h after transfection.
Electrophysiological recordings were performed in whole-cell voltage-clamp mode, on an inverted fluorescence microscope (Olympus IX-51) using pClamp software and a […] amplifier (Molecular Devices). Electrophysiological data was filtered at 4 kHz, digitized at 10 kHz using a Digidata 1400 interface (Molecular Devices), recorded on a PC (Dell) and analysed using custom MATLAB software (MathWorks). Solutions were delivered from a gravity fed perfusion system through a capillary tube placed approximately […] from the recorded cell using an eight-way manifold pinch valve system (Nanion), which was controlled from the acquisition software. This allowed for up to seven concentrations of agonist to be tested. […]

unmodified α7–5HT3 = biological target: T2, unmodified α7–5HT3 (UniProt P23979+P36544, M226I/T225I); experiment: Membrane potential assay, unmodified α7–5HT3; assay type: cell-based, human α7 nAChR LBD, mouse 5HT3 IPD; details: a7-5Ht3; for Max normalized AVG: AVG of DR 1-3; for Max normalized, single replicate: relative to ACh max of the DR
T2 construct: expressed in transfected cells; host or cells: HEK293 (ATCC CRL-1573), pcDNA3.1
T2 sequence (P36544+P23979 fused P36544:T225I/P36544:M226I): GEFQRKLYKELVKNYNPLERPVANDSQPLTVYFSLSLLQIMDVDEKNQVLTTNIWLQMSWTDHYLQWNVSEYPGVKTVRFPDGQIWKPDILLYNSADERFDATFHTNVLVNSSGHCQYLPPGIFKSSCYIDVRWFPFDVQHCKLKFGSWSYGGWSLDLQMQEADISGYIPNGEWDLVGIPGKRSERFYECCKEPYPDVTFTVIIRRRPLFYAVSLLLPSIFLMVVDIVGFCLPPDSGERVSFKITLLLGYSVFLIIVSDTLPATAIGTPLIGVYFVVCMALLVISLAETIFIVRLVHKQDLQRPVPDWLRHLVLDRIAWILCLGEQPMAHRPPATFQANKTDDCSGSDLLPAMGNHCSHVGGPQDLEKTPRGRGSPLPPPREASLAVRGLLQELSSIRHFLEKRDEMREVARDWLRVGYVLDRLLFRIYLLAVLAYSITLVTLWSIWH

[2] = test system: α7–5HT3 mutant chimeric channels; experiment: cell-based; assay type: cell-based, human α7 nAChR LBD, mouse 5HT3 IPD; details: for EC50: sheet 1e
unmodified α7–GlyR = biological target: T3, unmodified α7–GlyR (Homo sapiens, UniProt P23415+P36544); experiment: Membrane potential assay, unmodified α7–GlyR; assay type: cell-based; details: a7-GlyR; for Max normalized AVG: AVG of DR 1-3
T3 construct: expressed in transfected cells; host or cells: HEK293 (ATCC CRL-1573), pcDNA3.1
T3 sequence (P36544+P23415 fused): as the sequence (P36544+P23415 fused P36544:L141G/P36544:G175K/P36544:Y217F) above, with G119L, K153G, F195Y counted along it

[3] = screen of chimeric α7–5HT3 and α7–GlyR single LBD mutants (Fig. 1d)

SMILES: CC(=O)OCC[N+](C)(C)C [ACh, acetylcholine]
- DR response, single replicate ([1]; [ACh] 1.37174): 0.018 and 0.006 and 0.023 and 0.1 and 0.117 and 0.055 and 0.048 and 0.049
- Max normalized, single replicate ([1]; [ACh] 1.37174): 0.004983 and 0.06336 and 0.1695 and 0.06161 and 0.07891 and 0.05993 and 0.05731 and 0.01172
- Max normalized AVG ([1]; [ACh] 1.37174): 0.06341
- DR response, single replicate ([1]; [ACh] 4.11523): 0.031 (2×) and 0.023 and 0.017 and 0.194 and 0.139 and 0.02 and 0.098
- Max normalized, single replicate ([1]; [ACh] 4.11523): 0.0191 and 0.04683 and 0.3288 and 0.0732 and 0.02869 and 0.0387 and 0.1146 and 0.02018
- Max normalized AVG ([1]; [ACh] 4.11523): 0.08377
- DR response, single replicate ([1]; [ACh] 12.3457): 0.127 and 0.17 and 0.031 and 0.325 and 0.191 and 0.086 and 0.042 and 0.079
- Max normalized AVG ([1]; [ACh] 12.3457): 0.1536
- DR response, single replicate ([1]; [ACh] 37.037): 0.513 and 0.713 and 0.076 and 0.453 and 1.051 and 0.206 and 0.22 and 0.227
- Max normalized, single replicate ([1]; [ACh] 37.037): 0.5922 and 0.2094 and 0.7678 and 0.5534 and 0.2956 and 0.2747 and 0.2655 and 0.334
- Max normalized AVG ([1]; [ACh] 37.037): 0.4116
- DR response, single replicate ([1]; [ACh] 111.111): 1.218 and 1.065 and 0.222 and 0.557 and 1.552 and 0.373 and 0.414 and 0.475
- Max normalized AVG ([1]; [ACh] 111.111): 0.7072
- Max normalized, single replicate ([1]; [ACh] 333.333): 0.9626 and 0.9449 and 1 (5×) and 0.9414
- Max normalized AVG ([1]; [ACh] 333.333): 0.9811
- DR response, single replicate ([1]; [ACh] 1000): 1.536 and 1.204 and 0.363 and 0.524 and 0.67 and 0.657 and 0.77
- Max normalized, single replicate ([1]; [ACh] 1000): 1 (3×) and 0.8881 and 0.9613 and 0.8202 and 0.9006
- Max normalized AVG ([1]; [ACh] 1000): 0.9386
- DR response, single replicate ([1]; [ACh] 3000): 1.183 and 0.791 and 0.464
- Max normalized, single replicate ([1]; [ACh] 3000): 0.657 and 0.7864 and 0.7702
- Max normalized AVG ([1]; [ACh] 3000): 0.7379
- currents from coca-5HT3 (coca-5HT3): shifted above physiological concentrations
- DR response, single replicate (unmodified α7–5HT3; concentration 0.0457247): 0.056 and 0.121 and 0.112
- Max normalized AVG (unmodified α7–5HT3; concentration 0.0457247): 0.09523
- Max normalized, single replicate (unmodified α7–5HT3; concentration 0.0457247): 0.1142 and 0.1039 and 0.06763
- DR response, single replicate (unmodified α7–5HT3; concentration 0.137174): 0.034 and 0.057 and 0.037
- Max normalized AVG (unmodified α7–5HT3; concentration 0.137174): 0.04305
- Max normalized, single replicate (unmodified α7–5HT3; concentration 0.137174): 0.05377 and 0.03432 and 0.04106
- DR response, single replicate (unmodified α7–5HT3; concentration 0.411523): 0.071 and 0.056 and 0.06
- Max normalized AVG (unmodified α7–5HT3; concentration 0.411523): 0.06475
- Max normalized, single replicate (unmodified α7–5HT3; concentration 0.411523): 0.05283 and 0.05566 and 0.08575
- DR response, single replicate (unmodified α7–5HT3; concentration 1.23457): 0.065 and 0.06 and 0.083
- Max normalized AVG (unmodified α7–5HT3; concentration 1.23457): 0.0707
- Max normalized, single replicate (unmodified α7–5HT3; concentration 1.23457): 0.0566 and 0.07699 and 0.0785
- DR response, single replicate (unmodified α7–5HT3; concentration 3.7037): 0.161 and 0.213 and 0.204
- Max normalized AVG (unmodified α7–5HT3; concentration 3.7037): 0.1949
- Max normalized, single replicate (unmodified α7–5HT3; concentration 3.7037): 0.2009 and 0.1892 and 0.1944
- DR response, single replicate (unmodified α7–5HT3; concentration 11.1111): 0.486 and 0.61 and 0.657
- Max normalized AVG (unmodified α7–5HT3; concentration 11.1111): 0.5906
- Max normalized, single replicate (unmodified α7–5HT3; concentration 11.1111): 0.5755 and 0.6095 and 0.587
- DR response, single replicate (unmodified α7–5HT3; concentration 33.3333): 0.828 and 1.06 and 1.078
- Max normalized AVG (unmodified α7–5HT3; concentration 33.3333): 1
- Max normalized, single replicate (unmodified α7–5HT3; concentration 33.3333): 1
- DR response, single replicate (unmodified α7–5HT3; concentration 100): 0.762 and 0.959 and 0.926
- Max normalized AVG (unmodified α7–5HT3; concentration 100): 0.8947
- Max normalized, single replicate (unmodified α7–5HT3; concentration 100): 0.9047 and 0.859 and 0.9203
- max (DR response of the replicate) (unmodified α7–5HT3; largest response of each DR): 0.828 and 1.06 and 1.078
- Max normalized, single replicate (unmodified α7–GlyR; [ACh] 0.0457247): 0.2482 and 0.1071 and 0.173
- Max normalized AVG (unmodified α7–GlyR; [ACh] 0.0457247): 0.1761
- Max normalized AVG (unmodified α7–GlyR; [ACh] 0.137174): 0.1486
- Max normalized, single replicate (unmodified α7–GlyR; [ACh] 0.411523): 0.2506 and 0.0705 and 0.1596
- Max normalized AVG (unmodified α7–GlyR; [ACh] 0.411523): 0.1602
- Max normalized, single replicate (unmodified α7–GlyR; [ACh] 1.23457): 0.2787 and 0.09661 and 0.1213
- Max normalized AVG (unmodified α7–GlyR; [ACh] 1.23457): 0.1655
- Max normalized, single replicate (unmodified α7–GlyR; [ACh] 3.7037): 0.4426 and 0.3029 and 0.2921
- Max normalized AVG (unmodified α7–GlyR; [ACh] 3.7037): 0.3459
- Max normalized, single replicate (unmodified α7–GlyR; [ACh] 11.1111): 0.8337 and 0.671 and 0.6315
- Max normalized AVG (unmodified α7–GlyR; [ACh] 11.1111): 0.7121
- Max normalized, single replicate (unmodified α7–GlyR; [ACh] 33.3333): 0.9719 and 0.9347 and 0.9843
- Max normalized AVG (unmodified α7–GlyR; [ACh] 33.3333): 0.9636
- Max normalized, single replicate (unmodified α7–GlyR; [ACh] 100): 1
- Max normalized AVG (unmodified α7–GlyR; [ACh] 100): 1
- DR response, single replicate (unmodified α7–GlyR; concentration 0.0457247): 0.077 and 0.106 and 0.041
- DR response, single replicate (unmodified α7–GlyR; concentration 0.137174): 0.046 and 0.076 and 0.063
- DR response, single replicate (unmodified α7–GlyR; concentration 0.411523): 0.071 and 0.107 and 0.027
- DR response, single replicate (unmodified α7–GlyR; concentration 1.23457): 0.054 and 0.119 and 0.037
- DR response, single replicate (unmodified α7–GlyR; concentration 3.7037): 0.13 and 0.189 and 0.116
- DR response, single replicate (unmodified α7–GlyR; concentration 11.1111): 0.281 and 0.356 and 0.257
- DR response, single replicate (unmodified α7–GlyR; concentration 33.3333): 0.438 and 0.415 and 0.358
- DR response, single replicate (unmodified α7–GlyR; concentration 100): 0.445 and 0.427 and 0.383
- max (DR response of the replicate) (unmodified α7–GlyR; largest response of each DR): 0.445 and 0.427 and 0.383
